Measured values as given in US8796001B2, “Metalloenzyme inhibitor compounds” (Viamet Pharmaceuticals, Inc., priority 2011, dated 2014).

These compounds were tested on Puccinia recondita tritici = Puccinia triticina (PUCCRT) (assay: Fungicidal activity vs. leaf rust on wheat plants). Conditions: wheat (Yuma) sprayed at 50 ppm, inoculated the following day, rated 7-9 days later, read-out: Puccinia Rating (% Disease Control @ 50 ppm).
Assay type: in vivo
Excerpt: D. Evaluation of Fungicidal Activity vs. Leaf Rust (Causal Agent Puccinia Recondita Tritici=Puccinia Triticina; Bayer Code PUCCRT)
Each pot contained 3-8 seedlings. These plants were sprayed until wet with the formulated test compounds. The compounds were formulated at 50 ppm in 10 vol. % acetone plus 90 vol. % Triton X water (deionized water 99.99 wt %+0.01 wt % Triton X100), giving a “formulated test compound.” Formulated test compounds were applied to plants using a turn table sprayer fitted with two opposing air atomization nozzles which delivered approximately 1500 L/ha of spray volume. On the following day, the leaves were inoculated with an aqueous spore suspension of Puccinia recondita tritici and the plants were kept in high humidity overnight to permit spores to germinate and infect the leaf. The plants were then transferred to a greenhouse until disease developed on untreated control plants. Disease severity was evaluated 7-9 days later, depending on the speed of disease development.
In each case of Table 3, the Puccinia rating scale is as follows: […]

| Compound | pest or weed control at 50 ppm [%] |
| --- | --- |
| OC(Cn1cnnn1)(c1ccc(F)cc1F)C(F)(F)c1ccc(Oc2ncccn2)cn1 (stereo not shown) [Compound 97, 2-(2,4-difluorophenyl)-1,1-difluoro-1-(5-(pyrimidin-2-yloxy)pyridin-2-yl)-3-(1H-tetrazol-1-yl)propan-2-ol] | 80 to 100 |
| OC(Cn1cnnn1)(c1ccc(F)cc1F)C(F)(F)c1ccc(Oc2ncc(Cl)cn2)cn1 (stereo not shown) [Compound 98, 1-(5-((5-chloropyrimidin-2-yl)oxy)pyridin-2-yl)-2-(2,4-difluorophenyl)-1,1-difluoro-3-(1H-tetrazol-1-yl)propan-2-ol] | 80 to 100 |
| OC(Cn1cnnn1)(c1ccc(F)cc1F)C(F)(F)c1ccc(Oc2ncc(Br)cn2)cn1 (stereo not shown) [Compound 99, 1-(5-((5-bromopyrimidin-2-yl)oxy)pyridin-2-yl)-2-(2,4-difluorophenyl)-1,1-difluoro-3-(1H-tetrazol-1-yl)propan-2-ol] | 80 to 100 |
| N#Cc1ncc(Oc2ccc(C(F)(F)C(O)(Cn3cnnn3)c3ccc(F)cc3F)nc2)cn1 (stereo not shown) [Compound 100, 5-((6-(2-(2,4-difluorophenyl)-1,1-difluoro-2-hydroxy-3-(1H-tetrazol-1-yl)propyl)pyridin-3-yl)oxy)pyrimidine-2-carbonitrile] | 60 to 79 |
| O=Cc1ccc(Oc2ccc(C(F)(F)C(O)(Cn3cnnn3)c3ccc(F)cc3F)nc2)nc1 (stereo not shown) [Compound 101, 6-((6-(2-(2,4-difluorophenyl)-1,1-difluoro-2-hydroxy-3-(1H-tetrazol-1-yl)propyl)pyridin-3-yl)oxy)nicotinaldehyde] | < 40 |
| CO/N=C/c1ccc(Oc2ccc(C(F)(F)C(O)(Cn3cnnn3)c3ccc(F)cc3F)nc2)nc1 (stereo not shown) [Compound 102, (E)-6-((6-(2-(2,4-difluorophenyl)-1,1-difluoro-2-hydroxy-3-(1H-tetrazol-1-yl)propyl)pyridin-3-yl)oxy)nicotinaldehyde O-methyl oxime] | 80 to 100 |
| OC(Cn1cnnn1)(c1ccc(F)cc1F)C(F)(F)c1ccc(Oc2ccc(/C=N/OCc3ccccc3)cn2)cn1 (stereo not shown) [Compound 103, (E)-6-((6-(2-(2,4-difluorophenyl)-1,1-difluoro-2-hydroxy-3-(1H-tetrazol-1-yl)propyl)pyridin-3-yl)oxy)nicotinaldehyde O-benzyl oxime] | 60 to 79 |
| OC(Cn1cnnn1)(c1ccc(F)cc1F)C(F)(F)c1ccc(Oc2ncc(C(F)(F)F)cc2F)cn1 (stereo not shown) [Compound 104, 2-(2,4-difluorophenyl)-1,1-difluoro-1-(5-((3-fluoro-5-(trifluoromethyl)pyridin-2-yl)oxy)pyridin-2-yl)-3-(1H-tetrazol-1-yl)propan-2-ol] | 80 to 100 |
| OC(Cn1cnnn1)(c1ccc(F)cc1F)C(F)(F)c1ccc(Oc2ncc(C(F)(F)F)cn2)cn1 (stereo not shown) [Compound 105, 2-(2,4-difluorophenyl)-1,1-difluoro-3-(1H-tetrazol-1-yl)-1-(5-((5-(trifluoromethyl)pyrimidin-2-yl)oxy)pyridin-2-yl)propan-2-ol] | 80 to 100 |
| OC(Cn1cnnn1)(c1ccc(F)cc1F)C(F)(F)c1ccc(Oc2ccc(Br)cn2)cn1 (stereo not shown) [Compound 106, 1-(5-((5-bromopyridin-2-yl)oxy)pyridin-2-yl)-2-(2,4-difluorophenyl)-1,1-difluoro-3-(1H-tetrazol-1-yl)propan-2-ol] | 80 to 100 |
| N#Cc1cnc(Oc2ccc(C(F)(F)C(O)(Cn3cnnn3)c3ccc(F)cc3F)nc2)s1 (stereo not shown) [Compound 107, 2-((6-(2-(2,4-difluorophenyl)-1,1-difluoro-2-hydroxy-3-(1H-tetrazol-1-yl)propyl)pyridin-3-yl)oxy)thiazole-5-carbonitrile] | < 40 |
| OC(Cn1cnnn1)(c1ccc(F)cc1F)C(F)(F)c1ccc(OCc2ccc(Cl)cn2)cn1 (stereo not shown) [Compound 113, 1-(5-((5-chloropyridin-2-yl)methoxy)pyridin-2-yl)-2-(2,4-difluorophenyl)-1,1-difluoro-3-(1H-tetrazol-1-yl)propan-2-ol] | 80 to 100 |
| OC(Cn1cnnn1)(c1ccc(F)cc1F)C(F)(F)c1ccc(OCc2ccc(C(F)(F)F)cn2)cn1 (stereo not shown) [Compound 114, 2-(2,4-difluorophenyl)-1,1-difluoro-3-(1H-tetrazol-1-yl)-1-(5-((5-(trifluoromethyl)pyridin-2-yl)methoxy)pyridin-2-yl)propan-2-ol] | 80 to 100 |
| OC(Cn1cnnn1)(c1ccc(F)cc1F)C(F)(F)c1ccc(OCc2ccc(C(F)(F)F)nc2)cn1 (stereo not shown) [Compound 115, 2-(2,4-difluorophenyl)-1,1-difluoro-3-(1H-tetrazol-1-yl)-1-(5-((6-(trifluoromethyl)pyridin-3-yl)methoxy)pyridin-2-yl)propan-2-ol] | 80 to 100 |
| OC(Cn1cnnn1)(c1ccc(F)cc1F)C(F)(F)c1ccc(OCc2ccc(Cl)nc2)cn1 (stereo not shown) [Compound 116, 1-(5-((6-chloropyridin-3-yl)methoxy)pyridin-2-yl)-2-(2,4-difluorophenyl)-1,1-difluoro-3-(1H-tetrazol-1-yl)propan-2-ol] | 80 to 100 |
| OC(Cn1cnnn1)(c1ccc(F)cc1F)C(F)(F)c1ccc(OCc2ccnc(Cl)c2)cn1 (stereo not shown) [Compound 117, 1-(5-((2-chloropyridin-4-yl)methoxy)pyridin-2-yl)-2-(2,4-difluorophenyl)-1,1-difluoro-3-(1H-tetrazol-1-yl)propan-2-ol] | 80 to 100 |
| OC(Cn1cnnn1)(c1ccc(F)cc1F)C(F)(F)c1ccc(OCc2ccncc2)cn1 (stereo not shown) [Compound 118, 2-(2,4-difluorophenyl)-1,1-difluoro-1-(5-(pyridin-4-ylmethoxy)pyridin-2-yl)-3-(1H-tetrazol-1-yl)propan-2-ol] | < 40 |
| OC(Cn1cnnn1)(c1ccc(F)cc1F)C(F)(F)c1ccc(OCC(F)(F)c2ccccc2)cn1 (stereo not shown) [Compound 119, 1-(5-(2,2-difluoro-2-phenylethoxy)pyridin-2-yl)-2-(2,4-difluorophenyl)-1,1-difluoro-3-(1H-tetrazol-1-yl)propan-2-ol] | 80 to 100 |
| OC(Cn1cnnn1)(c1ccc(F)cc1F)C(F)(F)c1ccc(OCC(F)(F)c2ccc(OC(F)F)cc2)cn1 (stereo not shown) [Compound 120, 1-(5-(2-(4-(difluoromethoxy)phenyl)-2,2-difluoroethoxy)pyridin-2-yl)-2-(2,4-difluorophenyl)-1,1-difluoro-3-(1H-tetrazol-1-yl)propan-2-ol] | 80 to 100 |
| N#Cc1ccc(C(F)(F)COc2ccc(C(F)(F)C(O)(Cn3cnnn3)c3ccc(F)cc3F)nc2)cc1 (stereo not shown) [Compound 121, 4-(2-((6-(2-(2,4-difluorophenyl)-1,1-difluoro-2-hydroxy-3-(1H-tetrazol-1-yl)propyl)pyridin-3-yl)oxy)-1,1-difluoroethyl)benzonitrile] | 80 to 100 |
| OC(Cn1cnnn1)(c1ccc(F)cc1F)C(F)(F)c1ccc(OCC(F)(F)c2ccc(Cl)cc2)cn1 (stereo not shown) [Compound 122, 1-(5-(2-(4-chlorophenyl)-2,2-difluoroethoxy)pyridin-2-yl)-2-(2,4-difluorophenyl)-1,1-difluoro-3-(1H-tetrazol-1-yl)propan-2-ol] | 80 to 100 |
| OC(Cn1cnnn1)(c1ccc(F)cc1F)C(F)(F)c1ccc(OCC(F)c2ccccc2)cn1 (stereo not shown) [Compound 123, 2-(2,4-difluorophenyl)-1,1-difluoro-1-(5-(2-fluoro-2-phenylethoxy)pyridin-2-yl)-3-(1H-tetrazol-1-yl)propan-2-ol] | 80 to 100 |
